Experiments:
[1] = Surface tension, Kruss surface tensiometer; type: physicochemical; conditions: 0.1 wt % in 0.005M NaCl water
Protocol: Surface tension was measured using a Kruss surface tensiometer, with a sand blasted platinum blade as the sensor. Solutions of the various components were prepared at 0.1 wt % in 0.005M NaCl water (deionized), as an equilibrium aid.

[2] = Spreading of 10 μL droplet on polystyrene Petri dishes; type: physicochemical; conditions: 30 seconds
Protocol: Spreading was determined by applying a 10 μL droplet, of surfactant solution to polystyrene Petri dishes (Fisher Scientific) and measuring the spread diameter (mm) after 30 seconds, at a relative humidity between 50 and 70% (at 22 to 25° C.). The solution was applied with an automatic pipette to provide droplets of reproducible volume. Deionized water that was further purified with a Millipore filtration system was used to prepare the surfactant solutions.

Compound	Surface Tension [1] [mN/m]	Spread Diameter ([2]; 0.05% surfactant) [mm]	Spread Diameter ([2]; 0.1% surfactant) [mm]	Spread Diameter ([2]; 0.3% surfactant) [mm]	Spread Diameter ([2]; 0.5% surfactant) [mm]
C[Si](C)(C)C[Si](C)(C)CCCOCCOCCOCCOCCO [Product 6]	22.5	40	45	53	47
C[Si](C)(C)CC[Si](C)(C)CCCOCCOCCOCCOCCO [Product 7]	22.7	30	42	48	49
C[Si](C)(C)C[Si](C)(C)CCCOCCOCCOCCOCCOCCOCCOCCOCCOCCOCCOCCO [Product 8]	27.7	–	7	–	7
C[Si](C)(C)CC[Si](C)(C)CCCOCCOCCOCCOCCOCCOCCOCCOCCOCCOCCOCCO [Product 9]	26.7	–	7	–	7
Octylphenolethoxylate [OPE]	31.8	–	9	–	10

— patent US7700797B2, “Use of hydrolysis resistant organomodified silylated surfactants” (Momentive Performance Materials Inc., priority 2006, dated 2010)
